Experimental data as given in patent US20240139197A1, “INHIBITION OF KDM5A FOR PROMOTING ANTIGEN PRESENTATION, INCREASING CD8+ T CELL INFILTRATION AND BOOSTING ANTI-TUMOR IMMUNE RESPONSE” (The Wistar Institute of Anatomy and Biology, priority 2022, published 2024).

Assays:
HGSOC cell lines = experiment: dose response by colony formation assay in HGSOC/EOC cell lines; type: cell-based, human; conditions: panel of EOC cell lines, regardless of KDM5A expression status, dose response curve
Description: FIG. 5A-FIG. 5G show KDM5A is overexpressed in HGSOC and its expression negatively correlates with infiltration of CD8+ T cells. (FIG. 5A) Correlation between KDM5A and CD8A expression in the TCGA HGSOC dataset. (FIG. 5B) Correlation between KDM5A and CD8A expression in a published laser capture and microdissected (LCM) HGSOC dataset. (FIG. 5C) Correlation between KDM5A and PRFI expression in the TCGA HGSOC dataset. (FIG. 5D) Representative images of KDM5A IHC staining of HGSOC in a tumor microarray. (FIG. 5E) Relative expression of KDM5A in LCM of HGSOC and normal human ovarian surface epithelial cells (HOSE) or fallopian tube epithelial cells (FTE). (FIG. 5F) Expression of KDM5A and a loading control β-actin in the indicated FTE cells and HGSOC cell lines determined by immunoblot. (FIG. 5G) Dose response curves to KDM5A inhibitor CPI-455 determined by colony formation assay in the indicated HGSOC cell lines. Data represent mean±SEM; P values were calculated by using a two-tailed Student t test except in FIG. 5A and FIG. 5B by using Pearson r analysis.
Insulin/Transferrin/Selenium (Invitrogen, Cat #51300), […] Hydrocortisone (Sigma, Cat #H0135), 10 ng/ml Murine epidermal growth factor (Sigma, Cat #E4127) and 1% penicillin/streptomycin at 37° C.with 5% CO2. […]

HGS2 cells = experiment: cell viability by colony formation assay, HGS2; type: cell-based, mouse; conditions: HGS2, 10 μM, 8 days
Procedure: FIG. 6A-FIG. 6K show KDM5A inhibition promotes anti-tumor immune response in vivo. (FIG. 6A) Expression of H3K4me3, Kdm5a and a loading control b-actin in an independent second doxycycline-inducible shKdm5a ID8 clone treated with or without 2 μg/mL of doxycycline. (FIG. 6B) Same as FIG. 6A, but doxycycline-inducible shKdm5a ID8 cells were plated into 24 well plates and treated with 2 μg/mL of doxycycline the same day. Cells were incubated for 8 days. Relative cell viability was determined by colony formation assay. (FIG. 6C) Expression of H3K4me3, Kdm5a and a loading control b-actin in HGS2 cells treated 10 μM of CPI-455 or vehicle controls for 72 hours. […] Relative cell viability was determined by colony formation assay. (FIG. 6E-FIG. 6F) Bioluminescence signal was measured by IVIS system in indicated animal groups in the immunocompetent C57BL/6 mouse model once a week (FIG. 6E) and the survival of the indicated groups was determined by Kaplan-Meier survival curves (FIG. 6F) (n=5 mice per group). […] Ascites volumes produced from the indicated groups were quantified (FIG. 6H). n=5 mice per group. […] (FIG. 6J-FIG. 6K) Bioluminescence signal was measured by IVIS system in indicated animal groups in the immunocompromised NSG mouse model once a week (FIG. 6J), or examined for Kaplan-Meier survival curves for the indicated groups (FIG. 6K). […]

## CPI-455
HGSOC cell lines
  cell viability in vitro: did not affect cell viability
HGS2 cells
  cell viability: did not affect cell viability
